Source: patent US7625713B2, “Process for identifying a ligand that binds to the NEP binding site for the SMR1 pentapeptide” (Institut Pasteur, priority 2000, dated 2009)
Where a SMILES comes first, the peptide text is derived from it.

What was measured:
[1] = molecular target: T1, NEP (Rattus norvegicus, UniProt P07861); assay: Substance P endoproteolysis by rat peripheral tissue membrane preparations; assay type: biochemical
T1 construct: peripheral tissue membrane preparations that are known to be enriched in NEP-peptidase; from tissue; host or cells: rat renal outer medulla/kidney, intestine mucosa, placenta, prostate, dental and bone tissues, submandibular gland (membrane preparations)
T1 sequence (P07861 2-750): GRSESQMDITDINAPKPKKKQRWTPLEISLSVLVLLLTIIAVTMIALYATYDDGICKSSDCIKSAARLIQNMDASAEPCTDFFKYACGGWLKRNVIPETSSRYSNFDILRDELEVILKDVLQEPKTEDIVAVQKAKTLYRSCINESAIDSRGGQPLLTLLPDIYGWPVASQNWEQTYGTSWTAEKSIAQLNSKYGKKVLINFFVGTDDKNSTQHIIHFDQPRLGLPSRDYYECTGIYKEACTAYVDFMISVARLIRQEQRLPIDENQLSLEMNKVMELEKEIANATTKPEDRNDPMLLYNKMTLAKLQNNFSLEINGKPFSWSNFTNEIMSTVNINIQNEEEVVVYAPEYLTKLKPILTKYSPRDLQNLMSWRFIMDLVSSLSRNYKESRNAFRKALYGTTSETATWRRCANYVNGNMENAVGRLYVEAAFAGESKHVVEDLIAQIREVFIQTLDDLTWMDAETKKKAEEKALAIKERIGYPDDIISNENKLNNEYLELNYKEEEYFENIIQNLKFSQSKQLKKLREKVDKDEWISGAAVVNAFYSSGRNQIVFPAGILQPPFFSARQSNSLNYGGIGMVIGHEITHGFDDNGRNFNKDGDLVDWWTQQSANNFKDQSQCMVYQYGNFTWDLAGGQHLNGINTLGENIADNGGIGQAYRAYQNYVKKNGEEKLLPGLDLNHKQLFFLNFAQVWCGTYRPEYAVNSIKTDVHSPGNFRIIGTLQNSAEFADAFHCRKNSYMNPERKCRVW
Description: FIG. 4-A: Endopeptidase activity of the tissue membrane preparations was determined using 25 nM [3H] substanceP, in the presence of 10 μM bestatin. The enzymatic specific activity expressed in pM/min/μg membrane protein is done in the absence and in the presence of 10 μM sialorphin or NEP inhibitors (10 μM phosphoramidon or 1 μM thiorphan).
FIG. 4-B: Concentration-dependent inhibition by sialorphin of [3H] substanceP catabolism by rat renal membrane preparations. Each point represents the percentage of […] intact [3H] substanceP recovered and calculated as percentage of velocity without inhibitor−velocity in presence of inhibitor/velocity without inhibitor, and (*) represents the mean±SD of four determinations. Sialorphin concentration is expressed in nM and plotted on a log scale in B right. The protein concentration of membrane enzyme were defined according to conditions of measurement of initial velocity.
The same approach was applied to peripheral tissue membrane preparations that are known to be enriched in NEP-peptidase and/or to be targets for sialorphin, in vivo, i.e., renal outer medulla, intestine mucosa, placenta, prostate, dental and bone tissues, as well as submandibular epithelium (Rougeot, C. et al, American Journal of Physiology, (1997) 273, R1309-20; Sales et al., (1991) Regulatory Peptides 33, 209-22) and reviewed by Kenny et al., (1987), Mammalian ectoenzymes 169-210. There is evidence that, almost all these tissues contain substance P released from peripheral parasympathetic and sensory nerve terminals acting near the site of release on target cells that contain the neurokinin receptors to modulate the particular tissue function (McCarson et al., (1999), Neuroscience 93, 361-70). Thus, it appeared that the neuropeptide could be regarded as a relevant biologically NEP substrate at the periphery. However, substance P is cleaved potently by NEP and ACE membrane-bound peptidases, and both enzymes are highly distributed in the renal epithelium (Skidgel et al., (1985), Progress in Clinical & Biological Research 192, 371-8).
The specificity of the peptidase assay was assessed by testing the inhibitory efficacy of selective peptidase inhibitors (at 1-10 μM final concentration to induce maximum inhibitory response) on the endoproteolysis of 3H substance P by the various tissue-membrane enzymes, and by analysing the selective formation of the NEP-related tritiated product of the reaction that was defined, as above using spinal tissue. In addition, under standard conditions of initial velocity measurement, bestatin (10 μM) was added in the incubation medium to prevent unselectively the membrane aminopeptidase activities.

[2] = molecular target: T2, NEP (Rattus norvegicus, UniProt P07861); assay: 3H-Substance P hydrolysis by rat spinal cord slices; assay type: biochemical; conditions: 10 μM combined with GEMSA (10 μM) and DPPIV inhibitor (10 μM), 25° C., read-out: inhibition of Substance P degradation
T2 construct: incubations of membrane and fresh tissue slice preparations from nervous tissues; from tissue; host or cells: dorsal spinal cord of male Wistar rats (fresh slices or 100 000 x g membrane fraction)
T2 sequence (P07861 1-750): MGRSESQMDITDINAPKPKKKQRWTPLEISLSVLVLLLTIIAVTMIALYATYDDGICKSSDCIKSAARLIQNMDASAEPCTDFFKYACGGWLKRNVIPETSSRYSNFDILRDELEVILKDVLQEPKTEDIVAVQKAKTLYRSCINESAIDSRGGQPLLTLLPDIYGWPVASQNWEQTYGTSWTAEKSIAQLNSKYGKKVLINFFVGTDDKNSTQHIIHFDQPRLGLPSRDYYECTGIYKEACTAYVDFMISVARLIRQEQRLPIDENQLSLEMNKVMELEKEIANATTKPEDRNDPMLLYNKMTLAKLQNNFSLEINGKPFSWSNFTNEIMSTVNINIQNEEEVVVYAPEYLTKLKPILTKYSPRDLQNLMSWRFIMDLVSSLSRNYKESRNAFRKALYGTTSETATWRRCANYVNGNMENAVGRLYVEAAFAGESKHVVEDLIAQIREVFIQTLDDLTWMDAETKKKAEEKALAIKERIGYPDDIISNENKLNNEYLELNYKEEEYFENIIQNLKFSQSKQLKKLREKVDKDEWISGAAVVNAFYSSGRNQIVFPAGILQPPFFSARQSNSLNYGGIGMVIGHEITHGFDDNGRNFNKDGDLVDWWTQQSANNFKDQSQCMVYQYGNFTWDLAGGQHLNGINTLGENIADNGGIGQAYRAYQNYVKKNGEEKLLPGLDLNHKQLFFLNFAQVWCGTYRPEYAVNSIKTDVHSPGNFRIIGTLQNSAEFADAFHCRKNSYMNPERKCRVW
Description: For the experiments of analysis of the NEP peptidase activity, an ex vivo model using incubations of membrane and fresh tissue slice preparations from nervous tissues that are known to be appropriate for exploring NEP peptidase activity: i.e. the dorsal zone of rat spinal cord, was first developed. […] (NEN, 12.5-25 nM) were used.
The objective was to measure the NEP-specific endoproteolysis of these substrates.

## N=C(N)NCCC[C@H](NC(=O)[C@@H]1CCCN1C(=O)[C@H](CC(N)=O)NC(=O)[C@H](Cc1c[nH]cn1)NC(=O)[C@@H](N)CCC(N)=O)C(=O)O [sialorphin, Gln-His-Asn-Pro-Arg] (H-QHNPR-OH; N-terminus and C-terminus assumed)
[1]; inner bone tissues, n=4
  inhibitory efficacy on ectopeptidase-sensitive substance P degradation: 75±10%
[1]; male rat kidney membranes, 25 nM [3H] substance P, 10 μM bestatin, 10 μM sialorphin, n=9, read-out: inhibition of renal membrane substance-P-hydrolytic activity (maximum inhibitory response)
  inhibition at 10 µM: 60 ± 5%
[1]; membrane fractions of the rat intestine
  protection of exogenous 3H substance P from catabolic process: 87±17%
[1]; rat SMG (submandibular gland) membranes
  inhibition of substance-P-hydrolytic activity: 79%
[1]; rat inner dental tissue membranes, inhibitors at 1-10 μM (sialorphin 10 μM)
  reduction of 3H-substance P catabolic process: 39±14%
[1]; rat placenta and prostate tissue membranes, 10 μM
  decrease of substance P degradation: 70±3%
[1]; rat renal membrane preparations, read-out: IC50 on 3H substance-P degradation by rat kidney
  IC50: 0.5 to 1 µM
[2]
  inhibition at 10 µM: > 90%
